Test results as given in US9629828B2, “Methods of treating traveler's diarrhea and hepatic encephalopathy” (priority 2008, dated 2017).
Marks after values point to notes of the source that are not given here.

Key:
[1] = test system: adult subjects with travelers' diarrhea; assay: Travelers' diarrhea Study 1: clinical response (TLUS, clinical cure); format: in vivo, human
Experimental: One study was conducted at clinical sites in Mexico, Guatemala, and Kenya (Study 1). The other study was conducted in Mexico, Guatemala, Peru, and India (Study 2). Stool specimens were collected before treatment and 1 to 3 days following the end of treatment to identify enteric pathogens. The predominant pathogen in both studies was Escherichia coli.
The clinical efficacy of rifaximin was assessed by the time to return to normal, formed stools and resolution of symptoms. The primary efficacy endpoint was time to last unformed stool (TLUS) which was defined as the time to the last unformed stool passed, after which clinical cure was declared. […] More patients treated with rifaximin were classified as clinical cures than were those in the placebo group.

[2] = test system: Shigella flexneri 2a; assay: Open-label Shigella flexneri 2a challenge study; format: in vivo, human; settings: 13 treated subjects, 200 mg every 8 hours 3 days
[3] = test system: subjects in remission from hepatic encephalopathy (HE); assay: First study: asterixis grade (time to any increase, change from baseline); format: in vivo, human; settings: for Probability of no increase in asterixis grade: Kaplan-Meier; for Probability of no increase in asterixis grade / Cumulative number of events (increase in asterixis grade) / Event probability (increase in asterixis grade during the treatment interval) / Number of events (increase in asterixis grade): ITT, N = 140
Experimental: Asterixis (flapping tremor) was determined with the subject holding both arms and forearms extended with wrists dorsiflexed and fingers open for ≧30 seconds. Asterixis was measured on a continuum of 5 grades, e.g., grades 0 and 4=no abnormal movement vs. almost continuous flapping motions, respectively as shown below:
Efficacy in regard to asterixis grade was measured as time to any increase from baseline in asterixis grade.
FIG. 12 illustrates time to any increase from baseline in asterixis grade by treatment group in the ITT population in the first study. Table 21 presents estimates of the proportions of subjects who had any increase in asterixis grade over the course of the Treatment Period and results of statistical analyses. Subjects who discontinued prior to experiencing an increase in asterixis grade and prior to completion of the 6-month treatment period were censored at the time of discontinuation.

[4] = test system: rat hepatocyte; format: cell-based
[5] = clinical; settings: male, human, in vivo
[6] = test system: rabbits; settings: rabbit, in vivo
Excerpt: (§1) These effects include cleft palate, agnatha, jaw shortening, hemorrhage, eye partially open, small eyes, brachygnathia, incomplete ossification, and increased thoracolumbar vertebrae.

[7] = test system: rats; settings: rat, in vivo
Excerpt: as §1

[8] = test system: subjects with a history of recurrent, overt, episodic HE; assay: Second study (3002, open-label extension): breakthrough overt HE; format: in vivo, human
Experimental: Unlike the first study, subjects were not required to withdraw from the study after experiencing a breakthrough overt HE episode.
Conn scores and asterixis grades were assessed during the course of the study.
Therefore, the incidence of breakthrough overt HE over time during rifaximin therapy was evaluated. Table 24 presents breakthrough overt HE episodes by total number of HE episodes during the course of the study.
Most subjects in the second study (152 of 266) were also in the first study. […] The numbers of overt HE episodes experienced during the 6-month or 12-month intervals prior to the first study or prior to the second study were known.

[9] = Post approval adverse reactions; format: in vivo, human; settings: post approval use
Excerpt: Because these reactions are reported voluntarily from a population of unknown size, estimates of frequency cannot be made.

[10] = treatment interval 0 to <28 days
[11] = treatment interval 28 to <56 days
[12] = treatment interval 56 to <84 days
[13] = treatment interval 84 to <140 days
[14] = treatment interval 140 to <168 days

CO[C@H]1/C=C/O[C@@]2(C)Oc3c(C)c(O)c4c(O)c(c5c(nc6cc(C)ccn65)c4c3C2=O)NC(=O)/C(C)=C\C=C\[C@H](C)[C@H](O)[C@@H](C)[C@@H](O)[C@@H](C)[C@H](OC(C)=O)[C@@H]1C [rifaximin, (2S,16Z,18E,20S,21S,22R,23R,24R,25 S,26S,27S,28E)-5,6,21,23,25-pentahydroxy-27-methoxy-2,4,11,16,20,22,24,26-octamethyl-2,7-(epoxypentadeca-[1,11,13]trienimino)benzofuro[4,5-e]pyrido[1,2-á]-benzimidazole-1,15(2H)-dione,25-acetate]
Median TLUS ([1]; 200 mg TID 3 days, ITT n = 125): 32.5 h | Difference in rates of clinical cure vs placebo ([1]; ITT): 18.7^b | Clinical cure ([1]; ITT n = 125): 99 (79.2) n (%) | rescue treatment with ciprofloxacin [2]: eight subjects received rescue treatment | Number of subjects in each level of change from baseline in asterixis grade ([3]; Baseline to EOT, level: r10 −2, r11 −1, r12 0, r13 1, r14 2, r15 3, r16 4): 18 (12.9%) n (%) | Probability of no increase in asterixis grade [3, 10]: 1.0000 | Probability of no increase in asterixis grade [3, 11]: 0.9048 | Probability of no increase in asterixis grade [3, 12]: 0.8499 | Probability of no increase in asterixis grade [3, 13]: 0.7910 | Probability of no increase in asterixis grade [3, 14]: 0.7637 | Probability of no increase in asterixis grade ([3]; treatment interval ≧168 days): 0.7534 | subjects with changes in asterixis grade of 1, 2, 3, or 4 ([3]; baseline to end of treatment): 11.6% | subjects with changes in asterixis grade of −2, −1, and 0 ([3]; baseline to end of treatment): 88.5% | prevention of worsening of asterixis grade, times versus placebo ([3]; in vivo): 1.92 times | reduction in risk of worsening of asterixis ([3]; in vivo): 35% | subjects with increases in asterixis grade ([3]; in vivo): 32 of 140 | time to first increase in Asterixis grade vs placebo (FIG. 5) ([3]; in vivo): increased time to the first increase in Asterixis grade | Cumulative number of events (increase in asterixis grade) [3, 10]: 13 | Event probability (increase in asterixis grade during the treatment interval) [3, 10]: 0.10 | Number of events (increase in asterixis grade) [3, 10]: 13 | Cumulative number of events (increase in asterixis grade) [3, 11]: 20 | Event probability (increase in asterixis grade during the treatment interval) [3, 11]: 0.06 | Number of events (increase in asterixis grade) [3, 11]: 7 | Cumulative number of events (increase in asterixis grade) [3, 12]: 27 | Event probability (increase in asterixis grade during the treatment interval) [3, 12]: 0.07 | Number of events (increase in asterixis grade) [3, 12]: 7 | Cumulative number of events (increase in asterixis grade) [3, 13]: 30 | Event probability (increase in asterixis grade during the treatment interval) [3, 13]: 0.03 | Number of events (increase in asterixis grade) [3, 13]: 3 | Cumulative number of events (increase in asterixis grade) [3, 14]: 31 | Event probability (increase in asterixis grade during the treatment interval) [3, 14]: 0.01 | Number of events (increase in asterixis grade) [3, 14]: 1 | Cumulative number of events (increase in asterixis grade) ([3]; treatment interval ≧168 days): 32 | Event probability (increase in asterixis grade during the treatment interval) ([3]; treatment interval ≧168 days): 0.03 | Number of events (increase in asterixis grade) ([3]; treatment interval ≧168 days): 1 | genotoxicity [4]: not genotoxic | AUC(0-t) [5]: 19.5 ± 16.5 ng·h/mL | Cmax [5]: 4.3 ± 2.8 ng/mL | Tmax [5]: 1.25 h | fertility / harm to the fetus [6]: no evidence of impaired fertility or harm to the fetus | fertility / harm to the fetus [7]: no evidence of impaired fertility or harm to the fetus | Subjects with ≧1 breakthrough overt HE episode ([8]; All Rifaximin N = 266): 72 (27.1) n (%) | Subjects with ≧1 breakthrough overt HE episode ([8]; Continuing Rifaximin N = 70): 18 (25.7) n (%) | Subjects with ≧1 breakthrough overt HE episode ([8]; New Rifaximin N = 196): 54 (27.6) n (%) | patients free of breakthrough ([8]; after almost 3 years): approximately 60% | subjects with 1 breakthrough HE episode ([8]; all rifaximin): 44 subjects | subjects with 2 breakthrough HE episodes ([8]; all rifaximin): 18 subjects | subjects with 3 or more breakthrough HE episodes ([8]; all rifaximin): Ten | reduction in risk of breakthrough HE, continuing subjects vs 3001 placebo ([8]; in vivo): 90% | subjects with breakthrough overt HE during rifaximin after crossover ([8]; in vivo): 15 of 82 | rate of breakthrough HE episodes adjusted for exposure ([8]; new rifaximin subjects): 0.38 events/PEY | subjects with >2 HE episodes during rifaximin therapy ([8]; up to 840 days, first plus second study): 3.6% | C. difficile-associated colitis [9]: have been reported
